The target of the first experiment is calmodulin insensitive cyclic GMP phosphodiesterase. The experiment in a line: Phosphodiesterase activity: inhibition of calmodulin insensitive cyclic GMP phosphodiesterase. Type of experiment: biochemical. As to conditions: procedure of European Patent Application No. 293063; read-out: IC50 (concentration of inhibitor required for 50% inhibition of enzyme activity). The procedure: The activity of the compounds of the present invention as inhibitors of a calmodulin insensitive cyclic GMP phosphodiesterase was measured using the procedure described in European Patent Application No. 293063. […] The compounds of the present invention have the advantage that they are selective in not inhibiting cyclic AMP phosphodiesterase (type III).
Turning to `CCCOc1ccccc1-c1nc2ccccc2c(=O)[nH]1` [Example 1, 2-(2-Propoxyphenyl)quinazolin-4(3H)-one], the IC50 lay in the range of 0.71 to 5.3 µM.

Consider `CCCOc1ccccc1-c1nc2cc(NC)ccc2c(=O)[nH]1` [Example 5, 7-Methylamino-2-(2-Propoxyphenyl)-4(3H)-quinazolinone], for which the IC50 was in the range of 0.71 to 5.3 µM.

For `CCCOc1ccccc1-c1nc2cc(SC)ccc2c(=O)[nH]1` [Example 2, 7-Methylthio-2-(2-propoxyphenyl)quinazolin-4(3H)-one], the IC50 was in the range of 0.71 to 5.3 µM.

Consider `CCCOc1ccccc1-c1nc2cc([N+](=O)[O-])ccc2c(=O)[nH]1` [Example 3, 7-Nitro-2-(2-Propoxyphenyl)-4(3H)-quinazolinone], for which the IC50 is 0.71 to 5.3 µM.

Take `CCCOc1ccccc1-c1nc2cc(N)ccc2c(=O)[nH]1` [Example 4, 7-Amino-2-(2-Propoxyphenyl)-4(3H)-quinazolinone]: the IC50 is 0.71 to 5.3 µM.

A further experiment concerns U46619-induced broncho-constriction. The experiment can be described thus: Bronchodilatation in vivo: U46619-induced bronchoconstriction in anaesthetised guinea-pigs. Also on record: species or system guinea-pig. As to conditions: 10 μmol/kg i.v. bolus; anaesthetised male Dunkin Hartley guinea-pigs; U46619 infused i.v. 2.5 nmol/min. The procedure:
Male guinea-pigs of the Dunkin Hartley strain (500-600 g) were anaesthetised with Sagatal (pentobarbital sodium) (60 mg/kg). Airway resistance was measured using a modification of the classical Konzett-Rossler technique (Versuchsanordnung zu Untersuchungen an der Bronchialmuskulatur. Naunyn-Schmiedebergs Arch. Exp. Path. Pharmak., vol 195: pp 71-74, (1940)). U46619 (9,11-methanoepoxy-PGH2) was infused i.v. at a rate of 2.5 nmol/min, this produced a steady state of broncho-constriction (approximately 120% increase from basal airway resistance). The compound under test was administered by i.v. bolus injection, and the subsequent peak inhibition of bronchoconstriction recorded.
Administration of the compound of Example 1 (10 μmol/kg) reduced the U46619-induced broncho-constriction by 34%.
Consider `CCCOc1ccccc1-c1nc2ccccc2c(=O)[nH]1` [Example 1, 2-(2-Propoxyphenyl)quinazolin-4(3H)-one], for which the “reduction of U46619-induced broncho-constriction (peak inhibition)” value is 34%.

Source of the values: US5147875A, “2-(substituted phenyl)-4-oxo-quinazolines” (Sanshin Kogyo Kabishiki Kaisha, priority 1988, dated 1992).
